Measured values reported in publication PMC5951806, “Rapid labelling and covalent inhibition of intracellular native proteins using ligand-directed N-acyl-N-alkyl sulfonamide” (Nature Communications, 2018).

Key:
[1] = molecular target: T1, ADP/ATP translocase 2 (SLC25A5) (Homo sapiens, UniProt P05141); experiment: TMT LC-MSMS of 11-labelled proteins; format: cell-based
T1 sequence (P05141 1-298): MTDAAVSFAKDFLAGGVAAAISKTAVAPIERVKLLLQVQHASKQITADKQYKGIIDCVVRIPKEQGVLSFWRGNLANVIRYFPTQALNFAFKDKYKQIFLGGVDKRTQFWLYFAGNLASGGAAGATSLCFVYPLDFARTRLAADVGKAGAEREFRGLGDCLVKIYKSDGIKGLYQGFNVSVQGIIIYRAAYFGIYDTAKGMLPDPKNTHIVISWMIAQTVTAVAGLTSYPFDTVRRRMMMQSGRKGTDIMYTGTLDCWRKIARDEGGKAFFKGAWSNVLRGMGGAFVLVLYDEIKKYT

[2] = molecular target: T2, heat shock protein 75 kDa, mitochondrial (TRAP1) (Homo sapiens, UniProt Q12931); experiment: TMT LC-MSMS of 11-labelled proteins; format: cell-based
T2 sequence (Q12931 60-704): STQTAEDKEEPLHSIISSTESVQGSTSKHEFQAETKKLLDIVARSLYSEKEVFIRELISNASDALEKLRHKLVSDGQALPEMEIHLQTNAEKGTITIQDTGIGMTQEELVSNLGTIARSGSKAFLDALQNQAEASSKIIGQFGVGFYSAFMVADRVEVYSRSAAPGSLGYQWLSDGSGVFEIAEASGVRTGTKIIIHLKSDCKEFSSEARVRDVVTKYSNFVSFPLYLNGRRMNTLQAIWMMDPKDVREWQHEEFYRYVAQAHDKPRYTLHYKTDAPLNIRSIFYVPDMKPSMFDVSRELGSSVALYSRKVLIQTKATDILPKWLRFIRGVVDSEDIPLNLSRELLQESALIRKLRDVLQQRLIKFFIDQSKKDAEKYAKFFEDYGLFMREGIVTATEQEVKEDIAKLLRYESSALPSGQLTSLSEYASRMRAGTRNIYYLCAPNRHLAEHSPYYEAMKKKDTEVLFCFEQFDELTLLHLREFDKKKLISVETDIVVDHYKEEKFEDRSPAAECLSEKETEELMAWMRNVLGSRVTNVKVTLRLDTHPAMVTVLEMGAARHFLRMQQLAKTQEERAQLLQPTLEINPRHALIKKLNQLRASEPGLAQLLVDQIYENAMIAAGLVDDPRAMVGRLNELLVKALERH

[3] = sheet Merged, SKBR3 cells, 11 0.5 µM 3 h vs DMSO
[4] = sheet Merged, SKBR3 cells, 11 0.5 µM 3 h vs with PU-H71 10 µM

Abundance Ratio: (11) / (11 with PU-H71) ([1]; Exp3, SLC25A5): 0.462
Abundance Ratio: (11) / (DMSO) ([1]; Exp3, SLC25A5): 2.668
Abundances (Grouped): 11 ([1]; Exp3, SLC25A5): 245.2
Abundances (Grouped): 11 with PU-H71 ([1]; Exp3, SLC25A5): 530.2
Abundance Ratio: (11) / (DMSO) ([1]; sheet Exp1, SKBR3 cells, 11 0.5 µM 3 h vs DMSO): 5.138
Abundance Ratio: (11) / (11 with PU-H71) ([1]; sheet Exp1, SKBR3 cells, 11 0.5 µM 3 h vs with PU-H71 10 µM): 0.711
Abundance Ratio: (11) / (11 with PU-H71) ([1]; sheet Exp2, SLC25A5): 0.597
Abundance Ratio: (11) / (DMSO) ([1]; sheet Exp2, SLC25A5): 5.273
Abundances (Grouped): 11 ([1]; sheet Exp2, SLC25A5): 116
Abundances (Grouped): 11 with PU-H71 ([1]; sheet Exp2, SLC25A5): 194.4
Abundance Ratio: (11) / (DMSO) [1, 3]: 2.741
Abundance Ratio: (11) / (11 with PU-H71) [1, 4]: 0.563
Abundance Ratio: (11) / (11 with PU-H71) ([2]; Exp3, TRAP1): 0.787
Abundance Ratio: (11) / (DMSO) ([2]; Exp3, TRAP1): 2.947
Abundances (Grouped): 11 ([2]; Exp3, TRAP1): 28
Abundances (Grouped): 11 with PU-H71 ([2]; Exp3, TRAP1, with PU-H71): 35.6
Abundance Ratio: (11) / (DMSO) [2, 3]: 2.947
Abundance Ratio: (11) / (11 with PU-H71) [2, 4]: 0.787
Compound: CC(=O)Oc1ccc2c(c1)Oc1cc(OC(C)=O)ccc1C21OC(=O)c2cc(C(=O)NCCOCCOCCNC(=O)CCCC(=O)N(CC#N)S(=O)(=O)c3ccc(C(=O)NCCCn4c(Sc5cc6c(cc5I)OCO6)nc5c(N)ncnc54)cc3)ccc21 [compound 11]
